Data published in the supplement of paper PMC10307832.

Tests used:
Assay in all cases: relative viability (nuclei count vs DMSO), 5 days (fraction); higher = more cells survive
Omipalisib = compound: COc1ncc(-c2ccc3nccc(-c4ccnnc4)c3c2)cc1NS(=O)(=O)c1ccc(F)cc1F [Omipalisib]
In short: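 A plate was accepted only when its control CV was below 25% and the cells had doubled at least once. Viability is defined from nuclear counts as treated wells divided by vehicle wells, with the median taken across plates. That median covers lung cancer cell lines grown in 1536-well plates, dosed by pinning at five √10-spaced library-drug concentrations, and counted in MetaXpress from 4× Hoechst images after 5 days.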

Omipalisib + Olaparib = compound: COc1ncc(-c2ccc3nccc(-c4ccnnc4)c3c2)cc1NS(=O)(=O)c1ccc(F)cc1F [Omipalisib] + O=C(c1cc(Cc2n[nH]c(=O)c3ccccc23)ccc1F)N1CCN(C(=O)C2CC2)CC1 [Olaparib] (partner 8 µM)
In short: (§1)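 Relative viability divides the nuclei count in treated wells by that in vehicle wells. Lung cancer cell lines were seeded in 1536-well plates, dosed by pin tool the next day, and fixed and stained after 5 days in one step with final 0.05% Triton X-100, 1% formaldehyde and 1 ug/ml Hoechst. Dosing was a single drug or a fixed anchor-drug dose plus five library-drug doses (not always all listed) in √10 steps, and values are medians of duplicate plates imaged at 4×.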

Omipalisib + Crizotinib = compound: COc1ncc(-c2ccc3nccc(-c4ccnnc4)c3c2)cc1NS(=O)(=O)c1ccc(F)cc1F [Omipalisib] + C[C@@H](Oc1cc(-c2cnn(C3CCNCC3)c2)cnc1N)c1c(Cl)ccc(F)c1Cl [Crizotinib] (partner 1 µM)
In short: as §1

Omipalisib + Lapatinib = compound: COc1ncc(-c2ccc3nccc(-c4ccnnc4)c3c2)cc1NS(=O)(=O)c1ccc(F)cc1F [Omipalisib] + CS(=O)(=O)CCNCc1ccc(-c2ccc3ncnc(Nc4ccc(OCc5cccc(F)c5)c(Cl)c4)c3c2)o1 [Lapatinib] (partner 2 µM)
In short: as §1

Omipalisib + Bortezomib = compound: COc1ncc(-c2ccc3nccc(-c4ccnnc4)c3c2)cc1NS(=O)(=O)c1ccc(F)cc1F [Omipalisib] + CC(C)C[C@H](NC(=O)[C@H](Cc1ccccc1)NC(=O)c1cnccn1)B(O)O [Bortezomib] (partner 0.002 µM)
In short: as §1

Omipalisib + Linsitinib = compound: COc1ncc(-c2ccc3nccc(-c4ccnnc4)c3c2)cc1NS(=O)(=O)c1ccc(F)cc1F [Omipalisib] + C[C@]1(O)C[C@@H](c2nc(-c3ccc4ccc(-c5ccccc5)nc4c3)c3c(N)nccn32)C1 [Linsitinib] (partner 1 µM)
In short: as §1

Omipalisib + Pictilisib = compound: COc1ncc(-c2ccc3nccc(-c4ccnnc4)c3c2)cc1NS(=O)(=O)c1ccc(F)cc1F [Omipalisib] + CS(=O)(=O)N1CCN(Cc2cc3nc(-c4cccc5[nH]ncc45)nc(N4CCOCC4)c3s2)CC1 [Pictilisib] (partner 1 µM)
In short: as §1

Omipalisib + Alpelisib = compound: COc1ncc(-c2ccc3nccc(-c4ccnnc4)c3c2)cc1NS(=O)(=O)c1ccc(F)cc1F [Omipalisib] + Cc1nc(NC(=O)N2CCC[C@H]2C(N)=O)sc1-c1ccnc(C(C)(C)C(F)(F)F)c1 [Alpelisib] (partner 2 µM)
In short: as §1

Omipalisib + Foretinib = compound: COc1ncc(-c2ccc3nccc(-c4ccnnc4)c3c2)cc1NS(=O)(=O)c1ccc(F)cc1F [Omipalisib] + COc1cc2c(Oc3ccc(NC(=O)C4(C(=O)Nc5ccc(F)cc5)CC4)cc3F)ccnc2cc1OCCCN1CCOCC1 [Foretinib] (partner 0.25 µM)
In short: as §1

Omipalisib + Navitoclax = compound: COc1ncc(-c2ccc3nccc(-c4ccnnc4)c3c2)cc1NS(=O)(=O)c1ccc(F)cc1F [Omipalisib] + CC1(C)CCC(c2ccc(Cl)cc2)=C(CN2CCN(c3ccc(C(=O)NS(=O)(=O)c4ccc(N[C@H](CCN5CCOCC5)CSc5ccccc5)c(S(=O)(=O)C(F)(F)F)c4)cc3)CC2)C1 [Navitoclax] (partner 0.5 µM)
In short: as §1

Cell Line	relative viability (Omipalisib; 0.0003 µM)	relative viability (Omipalisib; 0.003 µM)	relative viability (Omipalisib; 0.03 µM)	relative viability (Omipalisib + Olaparib; first compound 0.0003 µM)	relative viability (Omipalisib + Olaparib; first compound 0.003 µM)	relative viability (Omipalisib + Olaparib; first compound 0.03 µM)	relative viability (Omipalisib + Crizotinib; first compound 0.0003 µM)	relative viability (Omipalisib + Crizotinib; first compound 0.003 µM)	relative viability (Omipalisib + Crizotinib; first compound 0.03 µM)	relative viability (Omipalisib + Lapatinib; first compound 0.0003 µM)	relative viability (Omipalisib + Lapatinib; first compound 0.003 µM)	relative viability (Omipalisib + Lapatinib; first compound 0.03 µM)	relative viability (Omipalisib + Bortezomib; first compound 0.0003 µM)	relative viability (Omipalisib + Bortezomib; first compound 0.003 µM)	relative viability (Omipalisib + Bortezomib; first compound 0.03 µM)	relative viability (Omipalisib + Linsitinib; first compound 0.0003 µM)	relative viability (Omipalisib + Linsitinib; first compound 0.003 µM)	relative viability (Omipalisib + Linsitinib; first compound 0.03 µM)	relative viability (Omipalisib + Pictilisib; first compound 0.0003 µM)	relative viability (Omipalisib + Pictilisib; first compound 0.003 µM)	relative viability (Omipalisib + Pictilisib; first compound 0.03 µM)	relative viability (Omipalisib + Alpelisib; first compound 0.0003 µM)	relative viability (Omipalisib + Alpelisib; first compound 0.003 µM)	relative viability (Omipalisib + Alpelisib; first compound 0.03 µM)	relative viability (Omipalisib + Foretinib; first compound 0.0003 µM)	relative viability (Omipalisib + Foretinib; first compound 0.003 µM)	relative viability (Omipalisib + Foretinib; first compound 0.03 µM)	relative viability (Omipalisib + Navitoclax; first compound 0.0003 µM)	relative viability (Omipalisib + Navitoclax; first compound 0.003 µM)	relative viability (Omipalisib + Navitoclax; first compound 0.03 µM)
Calu-6	1.09	0.986	0.861	0.658	0.625	0.542	0.904	0.813	0.681	1.05	1	0.795	0.982	0.951	0.865	0.842	0.931	0.815	0.996	0.879	0.775	0.889	0.864	0.755	0.894	0.844	0.754	0.882	0.848	0.452
EBC-1	0.957	0.821	0.325	0.67	0.57	0.193	0.218	0.183	0.212	0.211	0.216	0.202	0.605	0.549	0.263	0.822	0.521	0.405	0.428	0.395	0.191	0.906	0.692	0.259	0.114	0.102	0.0896	0.337	0.243	0.137
